# Experimental data published in patent publication US20080139457A1, “Therapeutic compositions comprising chorionic gonadotropins and HMG CoA reductase inhibitors” (Virginia Commonwealth University, priority 2005, published 2008).
# Entries after “also recorded” stand apart in the source; their conditions may differ.
# Legend:
# ERK½, JNK½, AKT (S473) = experiment: Immunoblotting of phosphorylation status of ERK½, JNK½, AKT in LNCaP cells; type: cell-based, human; conditions: for effect on hCG-induced ERK½ activation: pertussis toxin 300 ng/ml, AG1478 1 μM or GM6001 1 μM, 30 min after hCG 2 mU/ml
# Method: SDS-PAGE and Immunoblotting. The cells were plated at 5×10^5 cells/cm^2 and treated with drugs at the indicated concentrations and after the indicated time of treatment, lysed in whole-cell lysis buffer (0.5 M Tris-HCl, pH 6.8, 2% SDS, 10% glycerol, 1% β-mercaptoethanol, 0.02% bromophenol blue), and the samples were boiled for 30 minutes. The boiled samples were loaded onto 10-14% SDS-PAGE and electrophoresis was run overnight. Proteins were electrophoretically transferred onto 0.22 μm nitrocellulose, and immunoblotted with various primary antibodies against different proteins. All immunoblots were visualized by enhanced chemiluminescence (ECL).
# (§1) (1) LNCaP cells were cultured as described above. […] 0-6 hours after treatment, the cells were isolated, lysed in SDS PAGE sample buffer and equal protein concentrations subjected to SDS PAGE followed by immunoblotting to determine the phosphorylation status (activity status) of ERK½, JNK½, AKT (S473) and the expression level of ERK2 protein.
# (§2) (2) LNCaP cells were cultured as described above. 12 hours after plating, the cells were treated with vehicle (VEH, PBS) or pertussis toxin (300 ng/ml). 23 hours after plating cells were treated with vehicle (VEH, DMSO) or the ERBB1 inhibitor AG1478 (1 μM).
# (4) LNCaP cells were cultured as described above. […] Thirty minutes after irradiation the cells were isolated, lysed in SDS PAGE sample buffer and equal protein concentrations subjected to SDS PAGE followed by immunoblotting to determine the phosphorylation status (activity status) of ERK½ and ERBB1 Y1068 and the expression levels of ERBB1 and ERK2 proteins.
# as §1, with “LNCaP” for “(1) LNCaP”, “At the indicated times” for “0-6 hours”, “treatment (12-96 h),” for “treatment,”
# LNCaP cells [1] = experiment: Apoptosis assay in LNCaP cells (trypan blue exclusion); type: cell-based, human; conditions: for effect of inhibitor on cell viability / hCG lethality: LY294002 10 μM or AG1478 1 μM 30 min before hCG 2 mU/ml
# Method: Cell culture. Human prostate cells (PC3 and LCNaP) were purchased from the ATCC were cultured at 37° C. (5% (v/v CO2) in vitro using RPMI supplemented with 10% (v/v) fetal calf serum.
# LNCaP cells were cultured as described above. […] The cells were isolated by trypsinization 96 hours after irradiation. The attached and floating cells were combined, and cell viability was determined by trypan blue exclusion assays using a light microscope (*p<0.05 value greater than corresponding vehicle/irradiated+vehicle value; n=3 per data point ±SEM from 3 studies).
# LNCaP cells were cultured as described above. […] Caspase inhibitors were re-supplemented every 24 hours. After 96 hours of culture, cell viability numbers were determined MTT assays using a plate reader. The cells were isolated 96 hours after irradiation by trypsinization, the attached and floating cells combined, and cell viability determine by trypan blue exclusion assays using a light microscope.
# (2) LNCaP cells were cultured as described above. […] Cells were isolated 96 h after irradiation by trypsinization, the attached and floating cells combined, and cell viability determine by trypan blue exclusion assays using a light microscope.
# LNCaP cells were cultured as described above. […] Cells were isolated 96 hours after irradiation by trypsinization, the attached and floating cells combined, and cell viability determine by trypan blue exclusion assays using a light microscope. Cells were then lysed in SDS PAGE sample buffer and equal protein concentrations subjected to SDS PAGE followed by immunoblotting to determine the PARP1 ADP-ribosylation status (activity status) in the presence or absence of PJ-34.
# LNCaP cells were cultured as described in Example 1. Twelve hours after plating the cells were transfected using Lipofectamine with either a scrambled siRNA (SCR) or with siRNA molecules to suppress PARP1 or AIF expression (siPARP; siAIF; 10 nM each). […] Cells were isolated 96 hours after irradiation by trypsinization, the attached and floating cells combined, and cell viability determine by trypan blue exclusion assays using a light microscope. Cells were then lysed in SDS PAGE sample buffer and equal protein concentrations subjected to SDS PAGE followed by immunoblotting to determine PARP1 and AIF expression in the presence or absence of siPARP and siAIF, siRNA molecules, respectively. PARP-induced cell death has been linked by some groups to the cytotoxic actions of AIF.
# Apoptosis assay. LNCaP cells were cultured as described above. […] Cells were isolated by trypsinization 96 hours after irradiation, the attached and floating cells combined, and cell viability determine by trypan blue exclusion assays using a light microscope.
# LNCaP cells were cultured as described above. […] Cells were isolated 96 hours after irradiation by trypsinization, the attached and floating cells combined, and cell viability determine by trypan blue exclusion assays using a light microscope.
# LNCaP cells were cultured as described above. Twenty three hours after plating, cells were treated with either the control, vehicle (VEH, DMSO), or farnesyl pyrophosphate (FPP; 1 μM) or geranylgeranyl pyrophosphate (GGPP, 1 μM). […] In some cells the statin may enhance the effects of the chorionic gonadotropin by blocking farnesylation in which case the use of a farnesyl transferase inhibitor will be of further use.
# Apoptosis assay in LNCaP Cells. (1) LNCaP cells were cultured as described above. Twelve hours after plating, cells were infected with either empty vector virus (CMV) or with viruses to express dominant negative AKT, dominant negative MEK1, dominant negative IkB, constitutively active AKT, and constitutively active MEK1 at a multiplicity of infection (m.o.i.) of 25. In other parallel plates of cells, 24 h after plating, cells were pretreated 30 minutes prior to any additional manipulation with either vehicle (VEH, DMSO) or a JNK½ inhibitory peptide (JNK-IP, 10 μM).
# [2] = cited from earlier work
# ERBB1 = experiment: Immunoblotting of ERBB1 phosphorylation in LNCaP cells; type: cell-based, human; conditions: for effect on hCG-induced ERBB1 Y1173 phosphorylation: AG1478 1 μM, pertussis toxin 300 ng/ml, PD184352 1 μM or GM6001 1 μM, 30 min after hCG 2 mU/ml
# Method: (§3) SDS-PAGE and Immunoblotting. The cells were plated at 5×10^5 cells/cm^2 and treated with drugs at the indicated concentrations and after the indicated time of treatment, lysed in whole-cell lysis buffer (0.5 M Tris-HCl, pH 6.8, 2% SDS, 10% glycerol, 1% β-mercaptoethanol, 0.02% bromophenol blue), and the samples were boiled for 30 minutes. […] All immunoblots were visualized by enhanced chemiluminescence (ECL).
# as §2
# (3) LNCaP cells were cultured as described above.
# (4) LNCaP cells were cultured as described above.
# LNCaP cells [3] = experiment: Cell survival (colony formation) assay in LNCaP cells; type: cell-based, human; conditions: AG1478 1 μM removed 96 h after hCG 2 mU/ml and 4 Gy; 28 days
# Method: (§4) LNCaP cells were cultured as described above.
# Apoptosis Assay. LNCaP cells were cultured as described above.
# as §4
# PARP1 = PARP1 ADP-ribosylation status (immunoblot) in LNCaP cells; type: cell-based, human; conditions: AG1478 5 minutes after or 30 minutes before radiation; hCG 2 mU/ml, 4 Gy
# Method: as §3, §4, §4
# LNCaP cells [4] = experiment: MTT cell growth assay in LNCaP cells; type: cell-based, human; conditions: caspase inhibitor 50 μM, radiation 4 Gy, 96 h
# Method: LNCaP cells were cultured as described above. […] Caspase inhibitors were re-supplemented every 24 hours. After 96 hours of culture, cell viability numbers were determined MTT assays using a plate reader.
compound,measurement,setting,value
CC[C@H](C)C(=O)O[C@H]1C[C@@H](C)C=C2C=C[C@H](C)[C@H](CC[C@@H]3C[C@@H](O)CC(=O)O3)[C@H]21 [lovastatin],"JNK½ activation, combined exposure","ERK½, JNK½, AKT (S473); lovastatin 0.6 μM with hCG 2 mU/ml, within 48 hours",promoted JNK½ activation
same,hCG induced ERK½ and AKT activation,"ERK½, JNK½, AKT (S473); lovastatin 0.6 μM, hCG 2 mU/ml, within 48 hours",suppressed hCG induced ERK½ and AKT activation
same,basal AKT activity,"ERK½, JNK½, AKT (S473); lovastatin 0.6 μM, within 48 hours",suppressed basal AKT activity; also recorded: reduced AKT activity
same,enhancement of the lethality of hCG,"LNCaP cells [1]; lovastatin 0.1-0.6 μM 30 min before hCG 1 or 2 mU/ml, 96 h",enhanced the lethality of hCG to an extent greater than was observed using a PI3K inhibitor
same,concentrations achievable in human plasma,[2],0.1 to 0.6 µM
O=C(NOCC1CC1)c1ccc(F)c(F)c1Nc1ccc(I)cc1Cl [PD184352],effect on hCG-induced ERBB1 Y1173 phosphorylation,ERBB1,abolished
same,effect on radiation-induced ERBB1 Y1173 phosphorylation,"ERBB1; PD184352 1 μM, 4 Gy, 30 min after irradiation",did not alter radiation-induced ERBB1 Y1173 phosphorylation
CNC(=O)[C@H](Cc1c[nH]c2ccccc12)NC(=O)[C@@H](CC(=O)NO)CC(C)C [GM6001],effect on hCG-induced ERK½ activation,"ERK½, JNK½, AKT (S473)",abolisged ERBB1 Y1173 phosphorylation and ERK½ activation
same,effect on hCG-induced ERBB1 Y1173 phosphorylation,ERBB1,abolisged ERBB1 Y1173 phosphorylation
COc1cc2ncnc(Nc3cccc(Cl)c3)c2cc1OC [AG1478],effect on hCG-induced ERK½ activation,"ERK½, JNK½, AKT (S473)",blocked hCG-induced ERK½ activation
same,effect of ERBB1 inhibition on cell killing by hCG and radiation (colony formation),LNCaP cells [3],prevented the greater than additive induction of cell killing caused by combined hCG and radiation exposure
same,effect on PARP activation by combined hCG and radiation,PARP1,abolished the profound activation of PARP caused by combined hCG and radiation treatment
same,effect of inhibitor on cell viability / hCG lethality,LNCaP cells [1]; 96 h,did not significantly alter cell viability following hCG exposure
same,effect on hCG-induced ERBB1 Y1173 phosphorylation,ERBB1,blocked
zVAD,protection from toxicity of ionizing radiation in MTT assays,LNCaP cells [4],partially protected cells from the toxicity of ionizing radiation
same,effect of caspase inhibitor on lethality of lovastatin and hCG combination,"LNCaP cells [1]; LEHD 50 μM or zVAD 50 μM, lovastatin 0.6 μM, hCG 2 mU/ml, 96 h",reduced the lethality of the lovastatin and hCG combination
same,effect of caspase inhibitor on cell death by hCG and radiation,"LNCaP cells [1]; caspase inhibitor 50 μM, hCG 2 mU/ml, 4 Gy, 96 h",modestly blunted
COC(=O)[C@H](CC(C)C)NC(=O)c1ccc(NC[C@@H](N)CS)cc1-c1ccccc1 [GGTI-286],cell killing with hCG when used in place of lovastatin,LNCaP cells [1]; GGTI-286 10 μM with hCG,Identical data LNCaP cell killing data for hCG and lovastatin exposure were obtained
CN(C)CC(=O)Nc1ccc2[nH]c(=O)c3ccccc3c2c1 [PJ-34],effect of PARP inhibition on potentiation of hCG lethality by radiation,"LNCaP cells [1]; PJ-34 5 μM, hCG 2 mU/ml, 4 Gy, 96 h",abolished the potentiation of hCG lethality by radiation
pertussis toxin,effect on hCG-induced ERK½ activation,"ERK½, JNK½, AKT (S473)",suppressed hCG-induced activation of ERK½
same,effect on hCG-induced ERBB1 Y1173 phosphorylation,ERBB1,blocked
"CC(C)=CCC/C(C)=C/CC/C(C)=C/CC/C(C)=C/COP(=O)(O)OP(=O)(O)O [GGPP, geranylgeranyl pyrophosphate]",effect on the lethal interaction between hCG and lovastatin,"LNCaP cells [1]; FPP 1 μM or GGPP 1 μM, lovastatin 0.6 μM, hCG 2 mU/ml, 96 h",abolished the lethal interaction between hCG and lovastatin
"Cl.O=c1cc(N2CCOCC2)oc2c(-c3ccccc3)cccc12 [LY294002, 2-(4-Morpholinyl)-8-phenyl-4H-1-benzopyran-4-one hydrochloride]",effect of inhibitor on cell viability / hCG lethality,LNCaP cells [1]; 96 h,enhanced hCG lethality in LNCaP cells in a greater than additive fashion
